Experimental data as given in PubChem BioAssay (NCI).
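Five compound concentrations were applied to cells in 96-well plates for 48 hours; endpoints were derived by simple linear interpolation of the resulting dose-response curve. GI50 is the concentration that inhibits growth by half. TGI: concentration producing complete growth inhibition.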

Experiments:
Assay in all cases: growth of human tumour cells (NCI), 48 h
[1] = test system: OVCAR-3 ovarian
[2] = test system: M14 melanoma
[3] = test system: A549 NSCLC
[4] = test system: T-47D breast
[5] = test system: RPMI-8226 leukemia
[6] = test system: SK-MEL-5 melanoma
[7] = test system: CAKI-1 renal
[8] = test system: HOP-62 NSCLC
[9] = test system: EKVX NSCLC
[10] = test system: MDA-MB-231 breast
[11] = test system: OVCAR-4 ovarian
[12] = test system: MDA-MB-435
[13] = test system: ACHN renal
[14] = test system: SF-539 CNS
[15] = test system: HS 578T breast
[16] = test system: HCC-2998 colon
[17] = test system: SF-268 CNS
[18] = test system: NCI-H522 lung
[19] = test system: SF-295 CNS
[20] = test system: NCI-H23 lung
[21] = test system: UACC-257 melanoma
[22] = test system: HCT-15 colon
[23] = test system: LOX IMVI melanoma
[24] = test system: DU-145 prostate
[25] = test system: UO-31 renal
[26] = test system: MOLT-4 leukemia
[27] = test system: SW-620 colon
[28] = test system: TK-10 renal
[29] = test system: CCRF-CEM leukemia
[30] = test system: SK-MEL-2 melanoma
[31] = test system: K-562 leukemia
[32] = test system: BT-549 breast
[33] = test system: RXF 393 renal
[34] = test system: HOP-92 NSCLC
[35] = test system: IGROV1 ovarian
[36] = test system: MALME-3M melanoma
[37] = test system: PC-3 prostate
[38] = test system: SK-OV-3 ovarian
[39] = test system: MCF7 breast
[40] = test system: OVCAR-5 ovarian
[41] = test system: UACC-62 melanoma
[42] = test system: HT29 colon
[43] = test system: OVCAR-8 ovarian
[44] = test system: SN12C renal
[45] = test system: HCT-116 colon
[46] = test system: SK-MEL-28 melanoma
[47] = test system: NCI-H460 lung
[48] = test system: A498 renal
[49] = test system: SR leukemia
[50] = test system: NCI/ADR-RES ovarian
[51] = test system: U251 CNS
[52] = test system: COLO 205 colon
[53] = test system: SNB-75 CNS
[54] = test system: KM12 colon
[55] = test system: HL-60(TB) leukemia
[56] = test system: NCI-H226 lung
[57] = test system: 786-0 renal
[58] = test system: SNB-19 CNS

## O=C(N/N=C/c1ccc(Cl)s1)c1[nH]c2ccc(Br)cc2c1-c1ccccc1
[1]
  GI50: 0.321 µM
  TGI: 4.18 µM
[2]
  GI50: 0.318 µM
  TGI: > 100 µM
[3]
  GI50: 0.376 µM
  TGI: > 48.2 µM
[4]
  GI50: 2.31 µM
  TGI: > 86.8 µM
[5]
  GI50: 0.356 µM
  TGI: > 52.5 µM
[6]
  GI50: 0.284 µM
  TGI: 0.878 µM
[7]
  GI50: 0.45 µM
  TGI: 47 µM
[8]
  GI50: 0.766 µM
  TGI: 41.6 µM
[9]
  GI50: 1.18 µM
  TGI: > 100 µM
[10]
  GI50: 0.29 µM
  TGI: 3.09 µM
[11]
  GI50: 0.594 µM
  TGI: 69.8 µM
[12]
  GI50: 0.196 µM
  TGI: 0.384 µM
[13]
  GI50: 0.361 µM
  TGI: > 61.5 µM
[14]
  GI50: 0.122 µM
  TGI: 0.429 µM
[15]
  GI50: 0.496 µM
  TGI: 34.9 µM
[16]
  GI50: 0.453 µM
  TGI: 46 µM
[17]
  GI50: 0.574 µM
  TGI: > 100 µM
[18]
  GI50: 0.0719 µM
  TGI: 0.242 µM
[19]
  GI50: 0.275 µM
  TGI: 3.22 µM
[20]
  GI50: 0.426 µM
  TGI: 38.8 µM
[21]
  GI50: 0.508 µM
  TGI: > 100 µM
[22]
  GI50: 0.277 µM
[23]
  GI50: 0.308 µM
  TGI: 1.35 µM
[24]
  GI50: 0.346 µM
  TGI: 34.1 µM
[25]
  GI50: 0.52 µM
  TGI: > 100 µM
[26]
  GI50: 0.33 µM
  TGI: > 21.4 µM
[27]
  GI50: 0.375 µM
  TGI: > 100 µM
[28]
  GI50: 4.19 µM
  TGI: > 100 µM
[29]
  GI50: 0.354 µM
  TGI: > 86.4 µM
[30]
  GI50: 0.325 µM
  TGI: 21 µM
[31]
  GI50: 0.235 µM
  TGI: > 73.8 µM
[32]
  GI50: 0.274 µM
  TGI: 0.765 µM
[33]
  GI50: 0.547 µM
  TGI: 5.01 µM
[34]
  GI50: 1.37 µM
  TGI: 68.3 µM
[35]
  GI50: 0.386 µM
  TGI: 21.4 µM
[36]
  GI50: 0.489 µM
  TGI: > 74.4 µM
[37]
  GI50: 0.45 µM
  TGI: > 100 µM
[38]
  GI50: 0.409 µM
  TGI: 91.2 µM
[39]
  GI50: 0.266 µM
  TGI: 4.21 µM
[40]
  GI50: 0.424 µM
  TGI: > 100 µM
[41]
  GI50: 0.334 µM
  TGI: 25.9 µM
[42]
  GI50: 0.319 µM
  TGI: 10.7 µM
[43]
  GI50: 0.214 µM
  TGI: 0.714 µM
[44]
  GI50: 0.35 µM
  TGI: 32.9 µM
[45]
  GI50: 0.231 µM
  TGI: 7.06 µM
[46]
  GI50: 0.627 µM
  TGI: > 100 µM
[47]
  GI50: 0.335 µM
  TGI: 3.27 µM
[48]
  GI50: 28.3 µM
  TGI: > 100 µM
[49]
  GI50: 0.29 µM
  TGI: 27.6 µM
[50]
  GI50: 0.144 µM
[51]
  GI50: 0.322 µM
  TGI: 18.2 µM
[52]
  GI50: 0.488 µM
  TGI: 1.68 µM
[53]
  GI50: 0.259 µM
  TGI: 3.45 µM
[54]
  GI50: 0.402 µM
  TGI: 27.9 µM
[55]
  GI50: 0.226 µM
  TGI: 0.612 µM
[56]
  GI50: 0.313 µM
  TGI: 6.93 µM
[57]
  GI50: 0.418 µM
  TGI: > 41.5 µM
[58]
  GI50: 0.331 µM
  TGI: > 90.2 µM

## CCOC(=O)c1c(NCC(=O)Nc2cccc([N+](=O)[O-])c2)sc(C(C)=O)c1C
[1]
  GI50: 2.29 µM
  TGI: 5.69 µM
[2]
  GI50: 1.5 µM
  TGI: 3.28 µM
[3]
  GI50: 2.57 µM
  TGI: 8.02 µM
[4]
  GI50: 2.31 µM
  TGI: 6.71 µM
[5]
  GI50: 2.51 µM
  TGI: 6.79 µM
[6]
  GI50: 1.68 µM
  TGI: 3.17 µM
[7]
  GI50: 1.27 µM
  TGI: 3.65 µM
[8]
  GI50: 2.5 µM
  TGI: 6.58 µM
[9]
  GI50: 2.1 µM
  TGI: 5.52 µM
[10]
  GI50: 2.12 µM
  TGI: 4.77 µM
[11]
  GI50: 2.23 µM
  TGI: 6.36 µM
[12]
  GI50: 1.68 µM
  TGI: 3.1 µM
[13]
  GI50: 1.5 µM
  TGI: 2.9 µM
[14]
  GI50: 1.82 µM
  TGI: 4.48 µM
[15]
  GI50: 2.05 µM
  TGI: 5.97 µM
[16]
  GI50: 1.98 µM
  TGI: 3.91 µM
[17]
  GI50: 2.11 µM
  TGI: 5.16 µM
[18]
  GI50: 1.28 µM
  TGI: 4.12 µM
[19]
  GI50: 2.17 µM
  TGI: 5.11 µM
[20]
  GI50: 1.14 µM
  TGI: 3.45 µM
[21]
  GI50: 2.5 µM
  TGI: 7.47 µM
[22]
  GI50: 0.845 µM
  TGI: 5.35 µM
[23]
  GI50: 0.411 µM
  TGI: 1.67 µM
[24]
  GI50: 2.21 µM
  TGI: 5.91 µM
[25]
  GI50: 1.27 µM
  TGI: 2.62 µM
[26]
  GI50: 0.57 µM
  TGI: > 100 µM
[27]
  GI50: 0.491 µM
  TGI: 7.69 µM
[28]
  GI50: 2.1 µM
  TGI: 6.81 µM
[29]
  GI50: 0.585 µM
  TGI: > 100 µM
[30]
  GI50: 2.01 µM
  TGI: 4.84 µM
[31]
  GI50: 1.89 µM
  TGI: > 100 µM
[32]
  GI50: 1.44 µM
  TGI: 4.85 µM
[33]
  GI50: 1.21 µM
  TGI: 2.51 µM
[34]
  GI50: 1.68 µM
  TGI: 4.56 µM
[35]
  GI50: 0.414 µM
  TGI: 1.62 µM
[36]
  GI50: 1.51 µM
  TGI: 3.06 µM
[37]
  GI50: 0.794 µM
  TGI: 3.63 µM
[39]
  GI50: 1.44 µM
  TGI: 5.21 µM
[40]
  GI50: 1.42 µM
  TGI: 4.19 µM
[41]
  GI50: 0.574 µM
  TGI: 2.14 µM
[42]
  GI50: 0.797 µM
  TGI: 3.26 µM
[44]
  GI50: 1.84 µM
  TGI: 5.4 µM
[45]
  GI50: 1.71 µM
  TGI: 5.02 µM
[46]
  GI50: 1.78 µM
  TGI: 3.71 µM
[47]
  GI50: 1.21 µM
  TGI: 3.26 µM
[48]
  GI50: 1.7 µM
  TGI: 3.31 µM
[49]
  GI50: 0.646 µM
  TGI: > 100 µM
[50]
  GI50: 1.77 µM
  TGI: 5.39 µM
[51]
  GI50: 2.36 µM
  TGI: 9.14 µM
[52]
  GI50: 1.65 µM
  TGI: 4.6 µM
[53]
  GI50: 2.03 µM
  TGI: 5.61 µM
[54]
  GI50: 2.61 µM
  TGI: 7.99 µM
[55]
  GI50: 2.57 µM
  TGI: 14.2 µM
[56]
  GI50: 1.64 µM
  TGI: 4.46 µM
[57]
  GI50: 1.97 µM
  TGI: 4.21 µM
[58]
  GI50: 2.31 µM
  TGI: 6.5 µM
